These results are taken from patent US6706716B2, “Compounds specific for the human α1d adrenergic receptor and uses thereof” (Synaptic Pharmaceutical Corporation, priority 1998, dated 2004).

The target of assay [1] is T1, human α1d adrenergic receptor (Homo sapiens, UniProt P25100).
T1 construct: The entire coding region. of α1d (1719 bp); expressed in transfected cells
T1 sequence (P25100 1-572): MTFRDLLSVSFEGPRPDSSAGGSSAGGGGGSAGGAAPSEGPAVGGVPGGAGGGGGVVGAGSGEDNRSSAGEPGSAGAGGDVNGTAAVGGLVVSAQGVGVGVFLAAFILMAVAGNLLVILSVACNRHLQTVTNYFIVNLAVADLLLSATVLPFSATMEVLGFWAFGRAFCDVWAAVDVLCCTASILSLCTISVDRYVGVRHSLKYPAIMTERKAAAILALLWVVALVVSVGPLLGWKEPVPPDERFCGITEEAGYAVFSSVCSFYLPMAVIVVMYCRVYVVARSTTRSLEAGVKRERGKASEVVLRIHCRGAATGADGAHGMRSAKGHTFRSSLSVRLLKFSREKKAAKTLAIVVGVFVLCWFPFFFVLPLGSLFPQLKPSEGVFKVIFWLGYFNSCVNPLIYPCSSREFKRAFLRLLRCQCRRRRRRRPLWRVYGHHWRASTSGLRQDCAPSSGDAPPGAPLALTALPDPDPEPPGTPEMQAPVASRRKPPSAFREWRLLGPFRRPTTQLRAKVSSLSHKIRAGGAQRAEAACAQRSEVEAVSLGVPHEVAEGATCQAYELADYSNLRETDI
In words: Radioligand binding ([3H]prazosin) at cloned human α1d adrenergic receptor. Conditions: LM(tk-) cell membranes, read-out: Binding affinities (pKi) α1d (converted). As for the experimental part:
(§1) First, conditions were determined which allowed measurement of the specific binding of a compound known to bind to the receptor. Then, the binding of the known compound to the receptor in membrane preparations was evaluated in the presence of several different concentrations of the test compound.
(§2) These cell lines were prepared by transfecting the cloned cDNA or cloned genomic DNA or constructs containing both genomic DNA and cDNA encoding the human receptors as described below.
α1d Human Adrenergic Receptor: The entire coding region. of α1d (1719 bp), including 150 base pairs of 5′ untranslated sequence (5′ UT) and 300 bp of 3′ untranslated sequence (3′ UT), was cloned into the BamHI and ClaI sites of the polylinker-modified eukaryotic expression vector pCEXV-3, called EXJ.HR. The construct involved the ligation of partial overlapping human lymphocyte genomic and hippocampal cDNA clones: 5′ sequence were contained on a 1.2 kb SmaI-XhoI genomic fragment (the vector-derived BamHI site was used for subcloning instead of the internal insert-derived SmaI site) and 3′ sequences were contained on a 1.3 kb XhoI-ClaI cDNA fragment (the ClaI site was from the vector polylinker). Stable cell lines were obtained by cotransfection with the plasmid α1A/EXJ (expression vector containing the α1a receptor gene (old nomenclature)) and the plasmid pGCcos3neo (plasmid containing the aminoglycoside transferase gene) into LM(tk-) cells using the calcium phosphate technique. The cells were grown, in a controlled environment (37° C., 5% CO2), as monolayers in Dulbecco's modified Eagle's Medium (GIBCO, Grand Island, N.Y.) containing 25 mM glucose and supplemented with 10% bovine calf serum, 100 units/ml penicillin g, and 100 μg/ml streptomycin sulfate. Stable clones were then selected for resistance to the antibiotic G-418 (1 mg/ml), and membranes were harvested and assayed for their ability to bind [^3H]prazosin as described below (see Radioligand Binding assays).
The cell line expressing the human α1d receptor used herein was designated L-α1A (old nomenclature) and was deposited with the American Type Culture Collection, 12301 Parklawn Drive, Rockville, Md. 20852, U.S.A. under the provisions of the Budapest Treaty for the International Recognition of the Deposit of Microorganisms for the Purposes of Patent Procedure. The cell line expressing the human α1d receptor, was accorded ATCC Accession No. CRL 11138, and was deposited on Sep. 25, 1992.
(§3) Radioligand Binding Assays for α1 Human Adrenergic Receptors: Transfected cells from culture flasks were scraped into 5 ml of 5 mM Tris-HCl, 5 mM EDTA, pH 7.5, and lysed by sonication. The cell lysates were centrifuged at 1000 rpm for 5 min at 4° C., and the supernatant was centrifuged at 30,000×g for 20 min at 4° C. The pellet was suspended in 50 mM Tris-HCl, 1 mM MgCl2, and 0.1% ascorbic acid at pH 7.5. Binding of the α1, antagonist [^3H]prazosin (0.5 nM, specific activity 76.2 Ci/mmol) to membrane preparations of LM(tk-) cells was done in a final volume of 0.25 ml and incubated at 37° C. for 1 hour. Nonspecific binding was determined in the presence of 10 μM phentolamine. The reaction was stopped by filtration through GF/B filters using a cell harvester.

Assay [2] deals with T2, human α1a adrenergic receptor (Homo sapiens, UniProt P35348).
T2 construct: The entire coding region of α1a (1401 bp); expressed in transfected cells
T2 sequence (P35348 1-466): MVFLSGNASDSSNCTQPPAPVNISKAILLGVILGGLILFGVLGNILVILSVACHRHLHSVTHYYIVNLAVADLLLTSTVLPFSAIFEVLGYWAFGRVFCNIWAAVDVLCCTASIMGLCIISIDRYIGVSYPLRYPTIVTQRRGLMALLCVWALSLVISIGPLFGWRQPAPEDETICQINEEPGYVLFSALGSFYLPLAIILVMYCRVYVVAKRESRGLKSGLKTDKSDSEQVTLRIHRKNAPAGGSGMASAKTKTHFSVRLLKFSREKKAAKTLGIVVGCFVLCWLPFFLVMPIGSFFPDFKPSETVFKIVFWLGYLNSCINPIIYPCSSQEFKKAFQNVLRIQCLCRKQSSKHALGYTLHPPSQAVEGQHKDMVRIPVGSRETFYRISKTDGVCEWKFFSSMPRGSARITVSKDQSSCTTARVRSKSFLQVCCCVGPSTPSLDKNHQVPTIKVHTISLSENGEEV
In words: Radioligand binding ([3H]prazosin) at cloned human α1a adrenergic receptor. The note with it: LM(tk-) cell membranes, read-out: Binding affinities (pKi) α1a (converted). The protocol:
as §1, §2
The construct involved ligating three partial overlapping fragments: a 5′0.6 kb HincII genomic clone, a central 1.8 EcoRI hippocampal cDNA clone, and a 3′0.6 Kb PstI genomic clone. The hippocampal cDNA fragment overlaps with the 5′ and 3′ genomic clones so that the HincII and PstI sites at the 5′ and 3′ ends of the cDNA clone, respectively, were utilized for ligation. This full-length clone was cloned into the KpnI site of the expression vector, using the 5′ and 3′ KpnI sites of the fragment, derived from vector (i.e., pBluescript) and 3′-untranslated sequences, respectively. Stable cell lines were selected as described above. Membranes were harvested and assayed for their ability to bind [^3H]prazosin as described below (see Radioligand Binding assays).
as §3

The test system of assay [3] is urethane-anesthetized rats. The assay can be described thus: Blood pressure in urethane-anesthetized, normotensive rats. The format is in vivo, rat. The protocol: Rats were anesthetized with urethane and PE50 cannulae were placed in the femoral artery and vein for blood pressure monitoring and drug administration, respectively. After stabilization, rats were administered 200 μl saline vehicle or increasing doses of BMY 7378 or Compound 7 at 10 minutes intervals until the reduction in blood pressure reached a plateau. The 5-HT1A-selective antagonist WAY 100635 (1 mg/kg) was then administered and blood pressure monitored for an additional 10 minutes.

In assay [4] the target is T3, human α1b adrenergic receptor (Homo sapiens, UniProt P35368).
T3 construct: The entire coding region of α1b (1563 bp); expressed in transfected cells
T3 sequence (P35368 1-520): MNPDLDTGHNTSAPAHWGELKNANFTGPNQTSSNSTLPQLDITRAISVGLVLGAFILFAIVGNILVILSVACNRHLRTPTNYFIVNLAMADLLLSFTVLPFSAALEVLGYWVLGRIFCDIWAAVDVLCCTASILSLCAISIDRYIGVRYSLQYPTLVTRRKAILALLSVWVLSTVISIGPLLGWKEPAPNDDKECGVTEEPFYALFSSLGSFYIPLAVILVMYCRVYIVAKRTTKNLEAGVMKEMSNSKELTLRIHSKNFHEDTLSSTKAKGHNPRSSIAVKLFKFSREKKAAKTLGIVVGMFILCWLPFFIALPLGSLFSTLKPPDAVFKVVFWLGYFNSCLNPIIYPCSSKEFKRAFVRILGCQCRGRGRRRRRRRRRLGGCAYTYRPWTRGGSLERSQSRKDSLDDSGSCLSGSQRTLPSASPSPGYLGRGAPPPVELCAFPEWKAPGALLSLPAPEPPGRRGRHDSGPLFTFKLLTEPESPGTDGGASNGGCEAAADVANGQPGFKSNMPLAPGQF
The assay can be described thus: Radioligand binding ([3H]prazosin) at cloned human α1b adrenergic receptor. The note with it: LM(tk-) cell membranes, read-out: Binding affinities (pKi) α1b (converted). The protocol: as §1, §2
α1b Human Adrenergic Receptor: The entire coding region of α1b (1563 bp), including 200 base pairs of 5′ untranslated sequence (5′ UT) and 600 bp of 3′ untranslated sequence (3′ UT), was cloned into the EcoRI site of pCEXV-3 eukaryotic expression vector. The construct involved ligating the full-length EcoRI brainstem cDNA fragment from λ ZapII into the expression vector. Stable cell lines were selected as described above. Membranes were harvested and assayed for their ability to bind [^3H]prazosin as described below (see Radioligand Binding assays). The cell line used herein was designated L-α1B and was deposited with the American Type Culture Collection, 12301 Parklawn Drive, Rockville, Md. 20852, U.S.A. under the provisions of the Budapest Treaty for the International Recognition of the Deposit of Microorganisms for the Purposes of Patent Procedure. The cell line L-α1B was accorded ATCC Accession No. CR 11139, on Sep. 29, 1992.
as §3

`O=C1CC2(CCCC2)CC(=O)N1[C@H](Cc1ccccc1)CN1CCN(c2cc(F)c(F)cc2F)CC1` [Compound 17, 8-{(1R)-1-Benzyl-2-[4-(2,4,5-trifluorophenyl)piperazino]ethyl}-8-azaspiro[4.5]decane-7,9-dione]: the Ki is 79.4 nM in assay [1] and 10000 nM in assay [2].
For `O=C1CC2(CCCC2)CC(=O)N1[C@@H](CN1CCN(c2cc(F)c(F)cc2F)CC1)c1ccccc1` [Compound 16, 8-{(1R)-1-Phenyl-2-[4-(2,4,5-trifluorophenyl)piperazino]ethyl}-8-azaspiro[4.5]decane-7,9-dione] the same measures were 79.4 nM and 7940 nM.
For `C[C@H](CN1CCN(c2cc(F)c(F)cc2F)CC1)N1C(=O)CC2(CCCC2)CC1=O` [Compound 9, 8-{(1R)-2-[4-(2,4,5-Trifluorophenyl)piperazin-1-yl]-1-methylethyl}-8-azaspiro[4.5]decane-7,9-dione] the same measures were 1.26 nM and 15800 nM.
With `COc1ccccc1N1CCN(CCN2C(=O)CC3(CCCC3)CC2=O)CC1` [BMY 7378, reference compound], in assay [3] (5-HT1A-selective antagonist WAY 100635 1 mg/kg given after plateau), the “reversal of the blood pressure effect by WAY 100635” value is recorded as “reversed”. Besides, in assay [3] (urethane-anesthetized rats, increasing i.v. doses at 10 min intervals), the “effect on systolic, diastolic and mean blood pressure” value is “dose-dependent reduction”.
In the case of `O=C1CC2(CCCC2)CC(=O)N1CCN1CCN(c2ccccc2F)CC1` [Compound 20, 8-{2-[4-(2-Fluorophenyl)piperazin-1-yl]ethyl}-8-azaspiro[4.5]decane-7,9-dione], the Ki is 63.1 nM in assay [4] and 631 nM in assay [2].
With `C[C@@H](CN1CCN(c2cc(F)c(F)cc2F)CC1)N1C(=O)CC2(CCCC2)CC1=O` [Compound 11, 8-{(1S)-2-[4-(2,4,5-Trifluorophenyl)piperazin-1-yl]-1-methylethyl}-8-azaspiro[4.5]decane-7,9-dione], the values for the Ki in assay [1] and in assay [2] were 126 nM and 12600 nM, respectively.
